Data as given in BigSolDB 2.1.

CO[C@@]1(NC(=O)Cc2cccs2)C(=O)N2C(C(=O)O)=C(COC(N)=O)CS[C@@H]21
solubility (mole fraction)
Conditions | 278.15 K | 283.15 K | 288.15 K | 293.15 K | 298.15 K | 303.15 K | 308.15 K
in acetonitrile | 0.000452 | 0.000491 | 0.000528 | 0.00058 | 0.000621 | 0.000677 | 0.00076
in ethanol | 0.000403 | 0.000484 | 0.000603 | 0.000739 | 0.000852 | 0.00103 | 0.00118
in ethyl acetate | 0.000229 | 0.000241 | 0.000257 | 0.000267 | 0.000282 | 0.000296 | 0.00032
in isopropanol | 4.4e-05 | 7.19e-05 | 0.000109 | 0.000151 | 0.000186 | 0.000243 | 0.000314
in methanol | 0.00565 | 0.00658 | 0.00772 | 0.00919 | 0.011 | 0.0129 | 0.0149
in n-propanol | 0.000209 | 0.000253 | 0.000286 | 0.000338 | 0.000394 | 0.000492 | 0.000561
